Converted amounts (≈) assume the structure as drawn.
Test: water solubility by LC-MS/MS
Format: physicochemical
Details: water with 1% DMSO, kinetic from dmso stock, tested at 100 μM in 1% DMSO

solubility: 0.59 µM (≈ 0.185 µg/mL)
SMILES: N#Cc1ccc(NC(=O)c2sc3ccccc3c2Cl)cc1 [Compound #13, 3-chloro-N-(4-cyanophenyl)-1-benzothiophene-2-carboxamide]

— patent US20250066864A1, “METHODS FOR IDENTIFYING ADAR1 INHIBITORS, AND COMPOSITIONS AND METHODS OF USE IN TREATING CANCER” (The Wistar Institute of Anatomy and Biology, priority 2021, published 2025)
